Measured values published in patent US20080262066A1, “Azole Derivatives as Cannabinoid CB1 Receptor Antagonists” (Green Cross Corporation, priority 2007, published 2008).
pIC50: −log10 of the molar value.

Target: T1, rat CB-1 receptor (Rattus norvegicus, UniProt P20272)
T1 construct: The tissue obtained from the brain of SD rats was homogenized; from tissue; host or cells: SD rat brain (membrane pellet of homogenate)
Experiment: rat CB-1 receptor binding protocol with [3H]CP-55940 on SD rat brain tissue
Conditions: [3H]CP-55940 displacement, SD rat brain homogenate, 30° C., 60 min; read-out: IC50 (binding affinity for CB1 receptor)

T1 sequence (P20272 whole entry): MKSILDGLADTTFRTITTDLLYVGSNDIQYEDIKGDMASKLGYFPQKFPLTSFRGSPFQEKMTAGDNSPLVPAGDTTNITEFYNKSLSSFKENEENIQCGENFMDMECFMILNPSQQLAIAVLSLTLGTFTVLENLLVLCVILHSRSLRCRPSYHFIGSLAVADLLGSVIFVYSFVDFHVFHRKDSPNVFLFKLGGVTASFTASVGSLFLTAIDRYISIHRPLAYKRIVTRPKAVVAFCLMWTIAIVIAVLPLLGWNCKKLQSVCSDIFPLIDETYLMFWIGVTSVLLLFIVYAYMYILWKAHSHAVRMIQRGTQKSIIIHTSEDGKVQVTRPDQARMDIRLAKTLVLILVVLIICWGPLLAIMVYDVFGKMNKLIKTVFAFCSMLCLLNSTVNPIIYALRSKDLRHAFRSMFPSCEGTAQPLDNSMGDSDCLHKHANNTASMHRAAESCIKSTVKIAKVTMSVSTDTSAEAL

| pIC50 | SMILES |
| --- | --- |
| 6.02 | Cc1c(C(=O)NCNC(=O)C(C)C)nn(-c2ccc(Cl)cc2Cl)c1-c1ccc(Cl)cc1 [Example 37, 5-(4-Chlorophenyl)-1-(2,4-dichlorophenyl)-N-(isobutyramidomethyl)-4-methyl-1H-pyrazole-3-carboxamide] |
| 6.99 | Cc1c(C(=O)NCNC(=O)C2CCCC(C)C2)nn(-c2ccc(Cl)cc2Cl)c1-c1ccc(Cl)cc1 (stereo not drawn) [Example 40, 5-(4-Chlorophenyl)-1-(2,4-dichlorophenyl)-4-methyl-N-((3-methylcyclohexanecarboxamido)methyl)-1H-pyrazole-3-carboxamide] |

Further lines, the compound ahead of its results:

| SMILES | pIC50 |
| --- | --- |
| CCCC(=O)NCNC(=O)c1nn(-c2ccc(Cl)cc2Cl)c(-c2ccc(Cl)cc2)c1C [Example 36, N-(Butyramidomethyl)-5-(4-chlorophenyl)-1-(2,4-dichlorophenyl)-4-methyl-1H-pyrazole-3-carboxamide] | 6.04 |
| Cc1c(C(=O)NCNC(=O)C2CCCCCC2)nn(-c2ccc(Cl)cc2Cl)c1-c1ccc(Cl)cc1 [Example 38, 5-(4-Chlorophenyl)-N-(cycloheptanecarboxamidomethyl)-1-(2,4-dichlorophenyl)-4-methyl-1H-pyrazole-3-carboxamide] | 7.12 |
| Cc1c(C(=O)NCNC(=O)CC2CCCCC2)nn(-c2ccc(Cl)cc2Cl)c1-c1ccc(Cl)cc1 [Example 39, 5-(4-Chlorophenyl)-N-((2-cyclohexylacetamido)methyl)-1-(2,4-dichlorophenyl)-4-methyl-1H-pyrazole-3-carboxamide] | 7.33 |
| Cc1c(C(=O)NCNC(=O)CC2CCCC2)nn(-c2ccc(Cl)cc2Cl)c1-c1ccc(Cl)cc1 [Example 41, 5-(4-Chlorophenyl)-N-((2-cyclopentylacetamido)methyl)-1-(2,4-dichlorophenyl)-4-methyl-1H-pyrazole-3-carboxamide] | 6.86 |
